Results on five compounds are retold here after patent publication US7351399B2, “Prodrugs for phosphorus-containing compounds” (Metabasis Therapeutics, Inc., priority 1998, dated 2008).

Entries after “also recorded” stand apart in the source; their conditions may differ. Where two headings read alike, the source gives them in different places.

Series [1] can be described thus: Oral bioavailability by urinary excretion method (Example M). In kind it is in vivo. To be noted: oral gavage 20 or 40 mg/kg parent equivalents; 24 h urine vs i.v. parent ~10 mg/kg; rat. The protocol:
(§1) The oral bioavailability of prodrugs of a variety of phosphonic acid FBPase inhibitors was estimated by a urinary excretion method in rat.
Prodrugs of FBPase inhibitors were dissolved in 10% ethanol/90% polyethylene glycol (mw 400) and administered by oral gavage at doses of 20 or 40 mg/kg parent compound equivalents to 6-hour fasted, Sprague Dawley rats (220-240 g). The rats were subsequently placed in metabolic cages and urine was collected for 24 hours. The quantity of parent compound excreted into urine was determined by HPLC analysis. An ODS column eluted with a gradient from potassium phosphate buffer, pH 5.5 to acetonitrile was employed for these measurements. Detection was at 310-325 nm. […] Parent compounds were typically dissolved in dimethyl sulfoxide, and administered via the tail vein in animals that were briefly anesthetized with halothane.
Results for the FBPase inhibitor prodrugs were as follows

Series [2] in a line: Activation by rat liver microsomes (Example D). The settings on record: 100 μM; 0-2.5 mg/ml microsomal protein; 37° C.; with/without NADP+. In general terms: Microsomes from liver hold many membrane-bound enzymes, among them those of drug oxidation.
Method: Methods: The microsomal fraction was prepared from fresh, saline-perfused rat liver. Liver tissue was homogenized in three volumes (w/v) of 0.2 M KH2PO4 buffer pH 7.5, containing 2 mM MgCl2 and 1 mM EGTA. The homogenate was centrifuged at 10,000 g for 1 hour and the supernatant recovered. The supernatant fraction was then recentrifuged at 100,000 g to pellet the microsomal fraction. The pellet was resuspended in homogenization buffer and recentrifuged. This process was repeated twice to ensure complete removal of cytosolic enzyme activities. After the last centrifugation, the microsomal pellet was resuspended in homogenization buffer at a final protein concentration of about 14 mg/ml.
For 7.1, reaction mixtures (0.5 ml) consisted of 0.2 M KH2PO4 pH 7.5, 13 mM glucose-6-phosphate, 2.2 mM NADP^+, 1 unit of glucose-6-phosphate dehydrogenase, 0-2.5 mg/ml microsomal protein and 100 μM 7.1. Reactions were carried out at 37° C. Aliquots were removed from the reaction mixtures at appropriate time points, and extracted with 60% methanol.
Reactions are monitored spectrophotometrically at 340 nm. A decrease in absorbance is indicative of cofactor depletion and thus of the enzymatic oxidation of prodrug to parent compound.
A short description of series [3]: Chemical stability in isotonic saline and phosphate buffer (Example A). In kind it is physicochemical. The settings on record: room temperature. The protocol: Methods: Aliquots of a 10 μg/mL solution of 30.1 in isotonic saline and in 100 mM potassium phosphate buffers at pH 3, 7, and 9 were sampled after 1, 2, 5, and 7 days of incubation at room temperature and analyzed by HPLC. A Beckman Ultrasphere C8 column (4.6×150 mm) was employed and eluted with a gradient from 0.1% v/v trifluoroacetic acid to 80% methanol at a flow rate of 1.0 mL/min. Detection was at 254 nm. Using these conditions, the four isomers of 30.1 were readily separated and quantified. 1.3 was incubated at 100 μM in phosphate buffer at pH 7.4 and analyzed by HPLC as described in Example I following 1 hour of incubation at room temperature.
Thus, prodrugs of the invention are stable under a broad pH range.

Series [4] is described as follows: Oral bioavailability from liver ara-ATP area under the curve (Example M). In kind it is in vivo, rat. The settings on record: for oral bioavailability: hepatic ara-ATP AUC, fasted rats. The protocol: as §1
Methods: Fasted rats were dosed orally and intravenously with 30.1 at 3 and 10 mg/kg. Liver samples were obtained, processed, and analyzed for ara-ATP content as described in Example P.
[“Adenine Arabinoside: An Antiviral Agent” (1975) D. Pavan-Langston, Editor, Raven Press Publishers, New York].

A short description of series [5]: Liver ara-ATP and ara-hypoxanthine generation after intravenous administration (Example O). To be noted: for liver ara-ATP area under the curve relative to 10 mg/kg equivalent dose of ara-AMP: over 8 hours; for ara-hypoxanthine (araH) in plasma / blood: 30.1 10 and 3 mg/kg, ara-AMP 10 mg/kg; for dose excreted in the form of ara-hypoxanthine in urine: ara-AMP 10 mg/kg equivalent dose. It counts as in vivo, rat. The protocol:
The temporal profile of ara-hypoxanthine and ara-ATP generation following intravenous administration of 30.1 and free ara-AMP was compared in the rat. Method: 30.1 and ara-AMP (Sigma) were administered to normal, fasted rats intravenously (in saline) via tail vein catheters. At appropriate time points following drug a administration, animals were lightly anesthetized with halothane. The peritoneal cavity was then opened and a blood sample was obtained from the abdominal vena cava and the liver freeze-clamped and excised. The blood samples were heparinized and plasma was prepared. Plasma samples (100 μL) were mixed with 4 N perchloric acid (40 μL), vortexed, and then clarified by centrifugation. […] The eluent was monitored by UV absorbance at 254 nm. Livers were immediately homogenized in 3 volumes of 10% perchloric acid (w/w), and the extracts clarified by centrifugation at 2500×g (5 minutes). The resulting supernatants were removed and neutralized with 0.3 volumes of 3M KOH/3M KHCO3. […] Renal excretion of araH following i.v. administration of 30.1 or ara-AMP was determined as described in Example Q.

The nature of series [6]: Tissue distribution: activation in tissue homogenates (Example T). It counts as in vitro ADME, rat. To be noted: 100 μM; liver cytosol without microsomes. On the procedure:
30.1 is tested for activation in homogenates from various tissues to assess the specificity of liver activation.
Methods: Rats are anaesthetized under halothane and tissues including liver, kidney, brain, heart, stomach, spleen, muscle, lung, and testis are excised and frozen in liquid nitrogen. Tissues are then homogenized in 1 to 3 volumes of 50 mM Tris/HCl, 154 mM KCl, 1 mM EGTA pH 7.4. The homogenate is centrifuged at 10,000 rpm and 4° C. for 30 minutes and the supernatant recovered. Liver cytosol is prepared by centrifuging the liver crude extract for 1 hour at 40,000 rpm and 4° C. Reaction mixtures consist of 50 mM KH2PO4 pH 7.4, 13 mM glucose-6-phosphate, 2 mM NADP^+, 10 units of glucose-6-phosphate dehydrogenase, 100 μM 30.1 and tissue homogenate at a protein concentration of 8.5 mg/ml. Reactions are incubated at 37° C. Aliquots are taken after 0 and 1 hour of incubation, and extracted with 60% methanol. The methanolic extracts are centrifuged at 14,000 rpm, and filtered prior to analysis by HPLC. The samples are loaded onto a YMC C8 column equilibrated with 0.1% TFA and eluted with a methanol gradient to 80%. Ihe activation of 30.1 to ara-AMP is monitored at […]
Results. […] Results of this nature indicate liver specific activation of 30.1.

For the next series, the system named is normal C57 mice. To be noted: for araATP, nmoles/g liver: day 22, 3 hours after final dosing.
A short description of series [7]: Stability in plasma (Example C).
Method: Methods: Compounds were incubated in plasma at 37° C., and aliqouts removed at appropriate time points over the course of 5-8 hours. The aliquots were extracted with 1.5 volumes of methanol and clarified by centrifugation. Supernatants were then evaporated to dryness and the residues reconstituted with 100 μL of isoionic saline and then analyzed by reverse phase HPLC.
Another series deals with isolated rat hepatocytes. The series can be described thus: Generation of PMEApp in isolated rat hepatocytes (Example V). To be noted: Dose 250 μM; 4 h; triplicate. It counts as cell-based. On the procedure: Methods: Hepatocytes were prepared from fed rats and incubated as described in Example I. Test compounds were prepared in DMSO and-diluted to 250 μM in the cell suspensions. Reactions were performed in triplicate. After 4 hours of incubation, aliquots of the suspension were removed and processed as described in Example I. Quantitation of PMEApp was performed by anion exchange HPLC also as described in Example I.

Series [8] can be described thus: Hepatic PMEA-diphosphate generation following oral administration (Example W). In kind it is in vivo, rat. To be noted: oral gavage 30 mg/kg PMEA equiv.; 4 h; fasted rats; n = 3. On the procedure:
Four hours post administration, liver samples were obtained and processed as described in Example […] was analyzed by anion exchange HPLC as described for […] in Example O.

Another series relates to rat embryos in culture. To be noted: cited from earlier work.
For series [9] the following is noted: intravenous; human patients; cited from earlier work.

Method for normal C57 mice: Death and other obvious signs of toxicity such as weight loss, tremors, ruffling fur, hunching, prostration, diarrhea, lethargy, and hyperactivity were monitored. On day 22, 3 hours following the final dosing, mice were sacrificed and livers were removed and homogenized in 3 volumes (to liver weight) of 10% perchloric acid.

For `CC(C)Cn1c(-c2ccc(P3(=O)OCC(CO)CO3)o2)nc2ccc(Cl)cc21` (centres unmarked) [Compound 7.1, 6-Chloro-1-isobutyl-2-{5-[2′-(hydroxymethyl)-propan-1′,3′-yl]phosphono-2-furanyl}benzimidazole], the “% OBAV Prodrug” value in [1] came out at 10.9%. Besides, in series [2], the “conversion to parent compound” value is “converted to parent compound in the presence, but not in the absence of, NADP^+”.

As to `Nc1ncnc2c1ncn2[C@@H]1O[C@H](COP2(=O)OCCC(c3ccncc3)O2)[C@@H](O)[C@@H]1O` (stereo partly drawn) [Compound 30.1, Adenine-9-beta-D-arabinofuranoside-5′-[1-(4-pyridyl)-1,3-propyl]monophosphate], in series [3] (10 μg/mL, isotonic saline and 100 mM potassium phosphate buffers pH 3, 7, 9, 7 days, HPLC), the “decomposition in saline or buffer” value was “No decomposition”. Also, the “period for which stable” value in series [3] (isotonic saline / 100 mM potassium phosphate buffer pH 3, 7, 9) is “at least seven”. Besides, the oral bioavailability in series [4] (3 mg/kg oral vs intravenous) is on record as 13.7%; in series [4] (10 mg/kg oral vs intravenous), 17.4%. The “production of the metabolite araH after oral administration” value in [4] (oral administration) is listed as “without production of the metabolite araH”. Moreover, the “liver ara-ATP area under the curve relative to 10 mg/kg equivalent dose of ara-AMP” value was 2.1 times higher in series [5] (30.1 3 mg/kg i.v., rat) and 5.2 times higher in series [5] (30.1 10 mg/kg i.v., rat). Also, in [5] (i.v., 30.1 10 and 3 mg/kg vs araAMP 10 mg/kg), the “liver levels of araATP relative to araAMP (FIG. 1A)” value was “Significantly higher”. Moreover, the “ara-hypoxanthine (araH) in plasma / blood” value in series [5] (i.v., rat) is on record as “not detected; also recorded: no ara-hypoxanthine; also recorded: failed to produce detectable amounts; also recorded: no araH (a toxic metabolite) was detected”. Besides, in series [5] (i.v., rat), the “dose excreted in the form of ara-hypoxanthine in urine” value is reported as “Nor was ara-hypoxanthine detected in urine”. The “liver (araATP)/urine (araH) ratio in comparison with araAMP” value in [5] (rat) was “substantial shift”. Also, the “activation to ara-AMP in liver cytosol” value in [6] is reported as “does not result in activation”. Besides, the safety of administration entry with normal C57 mice (22 day period, doses up to 200 mg/kg/d) is reported as “safely administered”. For the same compound, the entries for the “araATP, nmoles/g liver” value in the series on normal C57 mice (Dose 20 mg/kg/d) and in the series on normal C57 mice (Dose 200 mg/kg/d) were 6.6 ± 1.6 nmoles/g liver and 23.1 ± 9 nmoles/g liver, respectively. Also, the “metabolism / degradation in fresh rat plasma” value in series [7] (37° C., 5-8 hours, HPLC) is listed as “not degraded; also recorded: no evidence of metabolism”. The “deamination by adenosine deaminase found in rat plasma” value in series [7] (rat plasma) is on record as “not susceptible”.

In the series with isolated rat hepatocytes, `Nc1ncnc2c1ncn2CCOCP1(=O)OCCC(c2cccc(Cl)c2)O1` (centres unmarked) [Compound 31.1, 9-{2-[1-(3-Chlorophenyl)1,3-propylphosphonomethoxy]ethyl}adenine] displayed a PMEApp of 52.8 ± 1.5 nmol/g. The “Hepatic PMEApp (nmoles/g/tissue)” value in [8] is 11.1 ± 1.8 nmoles/g/tissue.

Take `C=CC(=O)c1ccccc1` [Phenyl vinyl ketone]: the teratogenic activity result in the series on rat embryos in culture is “lacks teratogenic activity”.

With `Nc1ncnc2c1ncn2[C@@H]1O[C@H](COP(=O)(O)O)[C@@H](O)[C@@H]1O` [araAMP, reference compound], the “ara-hypoxanthine (araH) in plasma / blood” value in series [5] (i.v., rat, listed as AraAMP) was “rapidly and nearly completely converted to araH”; in [5] (i.v., rat, listed as ara-AMP), “μmolar levels”. The “dose excreted in the form of ara-hypoxanthine in urine” value in series [5] (i.v., rat) came out at 19.2%. Moreover, in series [5] (rat, compound not detectable in plasma), the “plasma half-life relative to 30.1” value is recorded as “considerably shorter”. The “araATP, nmoles/g liver” value in the series with normal C57 mice (Dose 20 mg/kg/d) was found to be 2.5 ± 0.2 nmoles/g liver; in the series with normal C57 mice (Dose 200 mg/kg/d), 19.1 ± 4.0 nmoles/g liver. The ara-AMP in plasma result in series [9] is listed as “not detected in plasma”.
